Reference: PMC5231411 (Science signaling, 2016)

How the values were obtained:
[1] = test system: C57BL/6 mice; experiment: Chloroquine phosphate-induced scratching; assay type: in vivo, mouse; settings: NorBNI 10 mg/kg ip 24 hours prior; triazole 1.1 1 mg/kg sc
[2] = test system: male Fisher 344 rats; settings: NorBNI 32 mg/kg 24 hours prior; U50,488H 6 mg/kg
[3] = test system: C57BL/6 mice; experiment: Warm water tail immersion; assay type: in vivo, mouse
[4] = test system: male Fisher 344 rats; experiment: Suppression of VTA ICSS by 1.8% lactic acid; assay type: in vivo, rat; settings: triazole 1.1 24 mg/kg
[5] = target: human KOR (Homo sapiens, UniProt P41145); assay type: biochemical
Chain of human KOR (P41145 whole entry): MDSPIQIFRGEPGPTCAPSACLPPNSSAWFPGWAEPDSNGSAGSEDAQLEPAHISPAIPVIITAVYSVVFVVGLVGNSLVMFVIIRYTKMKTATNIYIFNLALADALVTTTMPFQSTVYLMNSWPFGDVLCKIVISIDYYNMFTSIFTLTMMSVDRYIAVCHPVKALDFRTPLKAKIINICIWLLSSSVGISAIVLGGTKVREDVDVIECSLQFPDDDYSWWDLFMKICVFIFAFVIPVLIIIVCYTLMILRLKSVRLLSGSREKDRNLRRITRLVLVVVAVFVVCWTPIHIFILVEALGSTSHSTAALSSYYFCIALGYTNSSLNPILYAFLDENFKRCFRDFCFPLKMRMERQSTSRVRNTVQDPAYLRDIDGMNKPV

[6] = test system: C57BL/6J male mice; settings: mouse, in vivo
[7] = after systemic dosing; cited from earlier work
[8] = test system: KOR; experiment: Bias analysis, G protein; settings: reference U50,488H
[9] = test system: dopamine concentration in nucleus accumbens; experiment: Microdialysis of nucleus accumbens dopamine in freely moving mice; assay type: in vivo, mouse; settings: triazole 1.1 15 mg/kg ip
[10] = test system: KOR; settings: compared to reference agonist U69,593; cited from earlier work
[11] = test system: dopamine release in nucleus accumbens; settings: mouse brain slices
[12] = target: KOR (OPRK1) βarrestin2 recruitment (Homo sapiens, UniProt P41145); experiment: βarrestin2 enzyme fragment complementation assay; assay type: cell-based
Chain of KOR (OPRK1) βarrestin2 recruitment (P41145 whole entry, the tested form may be a part): as the sequence (P41145 whole entry) above

[13] = target: striatal KOR (Mus musculus, UniProt P33534); assay type: binding
Chain of striatal KOR (P33534 whole entry): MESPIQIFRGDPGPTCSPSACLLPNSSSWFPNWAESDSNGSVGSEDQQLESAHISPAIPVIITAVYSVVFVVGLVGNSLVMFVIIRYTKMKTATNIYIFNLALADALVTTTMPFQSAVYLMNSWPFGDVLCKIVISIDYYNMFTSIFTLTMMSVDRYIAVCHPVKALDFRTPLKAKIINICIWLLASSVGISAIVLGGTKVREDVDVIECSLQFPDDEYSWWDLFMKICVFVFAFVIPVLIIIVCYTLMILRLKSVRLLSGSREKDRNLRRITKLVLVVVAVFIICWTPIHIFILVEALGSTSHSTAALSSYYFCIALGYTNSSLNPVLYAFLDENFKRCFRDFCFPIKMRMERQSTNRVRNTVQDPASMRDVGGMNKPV

[14] = target: KOR in mouse striatum (Mus musculus, UniProt P33534); experiment: [35S]GTPγS binding in mouse striatal membranes; assay type: biochemical
Chain of KOR in mouse striatum (P33534 whole entry): as above

[15] = test system: KOR; settings: cited from earlier work
[16] = test system: mice; settings: cited from earlier work
[17] = test system: mice; settings: mouse, in vivo; cited from earlier work

In the case of `Oc1ccc2c3c1O[C@H]1c4[nH]c5c(c4C[C@@]4(O)[C@@H](C2)N(CC2CC2)CC[C@]314)C[C@@]1(O)[C@H]2Cc3ccc(O)c4c3[C@@]1(CCN2CC1CC1)[C@H]5O4` [NorBNI, Norbinaltorphimine, reference compound], the “Blockade of antipruritic effects of triazole 1.1” value [1] is reported as “blocked the antipruritic effects of triazole 1.1”, the “Blockade of U50,488H effects on ICSS” value [2] is reported as “blocked” and the “Antagonism of agonist-induced antinociception (tail flick)” value ([3]; NorBNI 15 mg/kg ip, 10 min before U50,488H or triazole 1.1) is reported as “fully antagonized the antinociception produced by both compounds”. The “Blockade of analgesic effect of triazole 1.1 on lactic acid-suppressed ICSS” value ([4]; NorBNI 32 mg/kg prior) was “completely blocked”.

For `Cc1ccc(CSc2nnc(-c3ccccn3)n2Cc2ccco2)cc1C(F)(F)F` [Triazole 1.1, 2-(4-(furan-2-ylmethyl)-5-((4-methyl-3-(trifluoromethyl)benzyl)thio)-4H-1,2,4-triazol-3-yl)pyridine], the “[35S]GTPγS binding assay Emax” value [5] is listed as 101 ± 5%, the “Locomotor activity (ambulation) in open field over 1 hour” value [6] is listed as “did not affect locomotor activity at any of the doses tested” and the “Brain penetration (tissue content in whole brain)” value [7] is listed as “brain-penetrant”. For the same molecule, the “Bias factor G/β (10^ΔΔLogR)” value ([8]; G protein/βarrestin2) was 28, the “ΔΔLogR (ΔLogR of [35S]GTPγS − ΔLogR of βarrestin2 EFC)” value ([8]; with 95% CI) was 1.44 (1.29 to 1.60) and the “Effect on dopamine concentration in nucleus accumbens (microdialysis)” value [9] was “did not significantly affect dopamine concentrations”. The “Response latency (%MPE) in warm water tail flick assay” value ([3]; C57BL/6 mice, sc, 20 min after injection, 10-s cutoff) was “produced an increase in response latency in a dose-dependent manner”, the “Antinociceptive efficacy in KOR-KO mice (tail flick)” value ([3]; KOR-KO mice, 30 mg/kg, ip) was “Neither drug had efficacy in KOR-KO mice” and the “Preference for G protein signaling over βarrestin2 recruitment” value [10] was “displays a preference for G protein signaling over βarrestin2 recruitment”. For the same molecule, the “Effect on evoked dopamine release, nucleus accumbens core” value ([11]; 10-1000 nM) was “no measureable decreases in the core”, the “Effect on evoked dopamine release, nucleus accumbens shell” value ([11]; 10-1000 nM) was “a modest decrease in the shell only at the highest concentration tested” and the “EC50 for decrease in dopamine release, nucleus accumbens core” value ([11]; 10-1000 nM cumulative) was “nonconvergence of curves”. The “EC50 for decrease in dopamine release, nucleus accumbens shell” value ([11]; 10-1000 nM cumulative) was “nonconvergence of curves”, the “βarrestin2 enzyme fragment complementation assay Emax” value [12] was 98 ± 4% and the “Reduction of specific [3H]U69,593 binding in striatum compared to untreated mice” value [13] was 40%. For the same molecule, the EC50 [14] was 497 ± 34 nM and the “Effect on lactic acid-induced suppression of ICSS (EF50 and Rmax)” value ([4]; […] lactic acid ip, ketoprofen 1 mg/kg sc, U50,488H 6 mg/kg) was “suppressed the effect of lactic acid compared to vehicle administration”.

For RB-64, the “Bias for G protein signaling over βarrestin2 recruitment” value [15] is given as “displays bias for G protein signaling over βarrestin2 recruitment”, the “Conditioned place aversion (CPA)” value [16] is given as “produces conditioned place aversion (CPA) in mice” and the “Antinociceptive efficacy and locomotor activity” value [17] is given as “preserves antinociceptive efficacy without decreasing locomotor activity”.
